Source: paper PMC12396409, “Screening and hit evaluation of a microbial metabolite library against the pathogenic Plasmodium falciparum and Toxoplasma gondii parasites” (International Journal for Parasitology: Drugs and Drug …, 2025)
Read-outs that look alike come from different tables or passages of the source.

Assays:
[1] = test system: P. falciparum 3D7 parasites; assay: P. falciparum growth inhibition assay, 1-cycle (72 h treatment), SYBR DNA staining (library screen at 2 μg/mL and dose-response); assay type: cell-based, Plasmodium falciparum; details: 72 h; for activity at 2 µg/mL: Plasmodium falciparum
[2] = test system: P. falciparum 3D7 parasites; assay: P. falciparum growth inhibition assay, 2-cycle (120 h treatment), delayed-death screen and dose-response; assay type: cell-based, Plasmodium falciparum; details: 120 h; for activity at 2 µg/mL: Plasmodium falciparum
[3] = test system: T. gondii RH strain (RH-Tub-eYFP) tachyzoites; assay: microbe, parasite or virus in culture; assay type: cell-based, Toxoplasma gondii; details: 72 h, 72 h; for percent parasite growth at 2 µg/mL: Toxoplasma gondii
[4] = 3D7, 72 h, P. falciparum, screen at 2 μg/mL, replicate 1, read-out: Pf_72h_%Growth_Rep1
[5] = 3D7, 72 h, P. falciparum, screen at 2 μg/mL, replicate 2, read-out: Pf_72h_%Growth_Rep2
[6] = 3D7, 120 h, P. falciparum, screen at 2 μg/mL, replicate 1, read-out: Pf_120h_%Growth_Rep1
[7] = 3D7, 120 h, P. falciparum, screen at 2 μg/mL, replicate 2, read-out: Pf_120h_%Growth_Rep2
[8] = T. gondii, screen at 2 μg/mL, replicate 1, read-out: Tg_72h_%Growth_Rep1
[9] = T. gondii, screen at 2 μg/mL, replicate 2, read-out: Tg_72h_%Growth_Rep2
[10] = library screen at 2 μg/mL, % growth, replicate 1
[11] = library screen at 2 μg/mL, % growth, replicate 2
[12] = P. falciparum, screen at 2 μg/mL, replicate 1
[13] = P. falciparum, screen at 2 μg/mL, replicate 2
[14] = T. gondii, screen at 2 μg/mL, replicate 1
[15] = T. gondii, screen at 2 μg/mL, replicate 2

Q: Which activity at 2 µg/mL [1, 4] does the source give for `N#Cc1cn([C@@H]2O[C@H](CO)[C@@H](O)[C@H]2O)c2ncnc(N)c12` [Toyocamycin] here?
A: 2.78%

Q: And the activity at 2 µg/mL [1, 5]?
A: 4.02%

Q: And the activity at 2 µg/mL [2, 6]?
A: 25.6%

Q: And the activity at 2 µg/mL [2, 7]?
A: 6.44%

Q: What about the percent parasite growth at 2 µg/mL [3, 8] of the same compound?
A: 0.78%

Q: And the percent parasite growth at 2 µg/mL [3, 9]?
A: 1.19%

Q: With `CN1C(=O)[C@@]23C[C@]4([C@]56C[C@@]78SS[C@@](CO)(C(=O)N7[C@H]5Nc5ccccc56)N(C)C8=O)c5ccccc5N[C@@H]4N2C(=O)[C@]1(CO)SS3` [Chaetocin] as the compound, how does the activity at 2 µg/mL [1, 4] read?
A: 10.9%

Q: And the activity at 2 µg/mL [1, 5]?
A: 11.2%

Q: What about the activity at 2 µg/mL [2, 6] of the same compound?
A: 16.4%

Q: What about the activity at 2 µg/mL [2, 7] of the same compound?
A: 23.8%

Q: What about the percent parasite growth at 2 µg/mL [3, 8] of the same compound?
A: 0.84%

Q: And the percent parasite growth at 2 µg/mL [3, 9]?
A: 2.33%

Q: `COC1=C(N)C(=O)c2nc(-c3nc(C(=O)O)c(C)c(-c4cccc(OC)c4O)c3N)ccc2C1=O` [Desmethoxystreptonigrin, 10'-] was tested. Which Pf_72h_%Growth_Rep1 [1, 10] did it give?
A: 2.87%

Q: What about the Pf_72h_%Growth_Rep2 [1, 11] of the same compound?
A: 4.81%

Q: And the Pf_120h_%Growth_Rep1 [2, 10]?
A: 0.15%

Q: What about the Pf_120h_%Growth_Rep2 [2, 11] of the same compound?
A: 8.14%

Q: What about the Tg_72h_%Growth_Rep1 [3, 10] of the same compound?
A: 4.18%

Q: And the Tg_72h_%Growth_Rep2 [3, 11]?
A: 4.20%

Q: For `C[C@H]1CCC[C@H](O)CCCCCc2cc(O)cc(O)c2C(=O)O1` [Zearalanol, alpha-], which Pf_72h_%Growth_Rep1 [1, 12] is on record?
A: 80.84%

Q: What about the Pf_72h_%Growth_Rep2 [1, 13] of the same compound?
A: 78.13%

Q: And the Pf_120h_%Growth_Rep1 [2, 12]?
A: 88.76%

Q: And the Pf_120h_%Growth_Rep2 [2, 13]?
A: 84.84%

Q: What about the Tg_72h_%Growth_Rep1 [3, 14] of the same compound?
A: 162.37%

Q: What about the Tg_72h_%Growth_Rep2 [3, 15] of the same compound?
A: 92.02%

Q: What does the source list for `C[C@@H]1C[C@H]2O[C@@H]2/C=C\C=C\C(=O)Cc2c(Cl)c(O)cc(O)c2C(=O)O1` [Radicicol]?
A: activity at 2 µg/mL ([1]; 3D7, P. falciparum, parasite screen 2 μg/mL, % growth, replicate 1, read-out: Pf_72h_%Growth_Rep1): 57.5%; activity at 2 µg/mL ([1]; 3D7, P. falciparum, parasite screen 2 μg/mL, % growth, replicate 2, read-out: Pf_72h_%Growth_Rep2): 42.5%; activity at 2 µg/mL ([2]; 3D7, P. falciparum, parasite screen 2 μg/mL, % growth, replicate 1, read-out: Pf_120h_%Growth_Rep1): 64.2%; activity at 2 µg/mL ([2]; 3D7, P. falciparum, parasite screen 2 μg/mL, % growth, replicate 2, read-out: Pf_120h_%Growth_Rep2): 55%; percent parasite growth at 2 µg/mL ([3]; T. gondii, parasite screen 2 μg/mL, % growth, replicate 1, read-out: Tg_72h_%Growth_Rep1): 52.9%; percent parasite growth at 2 µg/mL ([3]; T. gondii, parasite screen 2 μg/mL, % growth, replicate 2, read-out: Tg_72h_%Growth_Rep2): 57.6%

Q: How did the activity at 2 µg/mL ([1]; 3D7, P. falciparum, screen at 2 μg/mL, replicate 1, read-out: Pf_72h_%Growth_Rep1) turn out when `COc1cc(-c2oc3c(OC)c(OC)cc(O)c3c(=O)c2OC)ccc1O` [Ternatin] was run?
A: 64%

Q: What about the activity at 2 µg/mL ([1]; 3D7, P. falciparum, screen at 2 μg/mL, replicate 2, read-out: Pf_72h_%Growth_Rep2) of the same compound?
A: 81%

Q: What about the activity at 2 µg/mL ([2]; 3D7, P. falciparum, screen at 2 μg/mL, replicate 1, read-out: Pf_120h_%Growth_Rep1) of the same compound?
A: 137%

Q: What about the activity at 2 µg/mL ([2]; 3D7, P. falciparum, screen at 2 μg/mL, replicate 2, read-out: Pf_120h_%Growth_Rep2) of the same compound?
A: 71.9%

Q: What about the percent parasite growth at 2 µg/mL [3, 8] of the same compound?
A: 71.2%

Q: What about the percent parasite growth at 2 µg/mL [3, 9] of the same compound?
A: 66.7%

Q: With `COC1=C(OC)C(=O)C(C)=CC1=O` [Fumigatin methylether] as the compound, how does the Pf_72h_%Growth_Rep1 [1, 10] read?
A: 10.44%

Q: And the Pf_72h_%Growth_Rep2 [1, 11]?
A: 11.19%

Q: And the Pf_120h_%Growth_Rep1 [2, 10]?
A: 25.98%

Q: And the Pf_120h_%Growth_Rep2 [2, 11]?
A: 27.21%

Q: And the Tg_72h_%Growth_Rep1 [3, 10]?
A: 59.41%

Q: And the Tg_72h_%Growth_Rep2 [3, 11]?
A: 97.15%

Q: For `C/C=C\C=C\[C@@H]1O[C@](O)([C@H](CC)C(=O)NC/C=C/C=C(\C)[C@@H](OC)[C@@H](C)[C@H]2C[C@@H](O)[C@@H](/C=C/C=C/C=C/C(=O)O)O2)[C@H](O)[C@H](O)C1(C)C` [A 83016F], which Pf_72h_%Growth_Rep1 [1, 10] is on record?
A: 83.31%

Q: What about the Pf_72h_%Growth_Rep2 [1, 11] of the same compound?
A: 85.46%

Q: What about the Pf_120h_%Growth_Rep1 [2, 10] of the same compound?
A: 83.40%

Q: And the Pf_120h_%Growth_Rep2 [2, 11]?
A: 76.05%

Q: What about the Tg_72h_%Growth_Rep1 [3, 10] of the same compound?
A: 147.54%

Q: And the Tg_72h_%Growth_Rep2 [3, 11]?
A: 91.91%

Q: `O=C1N[C@@H](Cc2c[nH]c3ccccc23)C(=O)N[C@H]1Cc1c[nH]c2ccccc12` [Cyclo(L-Trp-L-Trp)] was tested. Which Pf_72h_%Growth_Rep1 [1, 12] did it give?
A: 85.34%

Q: And the Pf_72h_%Growth_Rep2 [1, 13]?
A: 84.68%

Q: What about the Pf_120h_%Growth_Rep1 [2, 12] of the same compound?
A: 96.17%

Q: What about the Pf_120h_%Growth_Rep2 [2, 13] of the same compound?
A: 91.69%

Q: And the Tg_72h_%Growth_Rep1 [3, 14]?
A: 161.12%

Q: And the Tg_72h_%Growth_Rep2 [3, 15]?
A: 99.00%
